Measured values from patent publication US20190071416A1, “COMPOUNDS FOR TREATMENT OF CANCER AND EPIGENETICS” (Agency For Science, Technology and Research, priority 2015, published 2019).

Each compound was assayed against T1, SMYD3 (Homo sapiens, UniProt Q9H7B4) (assay: SMYD3 biochemical assay (MTase-Glo, MAP3K2 peptide substrate)). Settings: Table 3; MTase assay, MAP3K2 peptide substrate; read-out: IC50.
T1 sequence (Q9H7B4 1-428): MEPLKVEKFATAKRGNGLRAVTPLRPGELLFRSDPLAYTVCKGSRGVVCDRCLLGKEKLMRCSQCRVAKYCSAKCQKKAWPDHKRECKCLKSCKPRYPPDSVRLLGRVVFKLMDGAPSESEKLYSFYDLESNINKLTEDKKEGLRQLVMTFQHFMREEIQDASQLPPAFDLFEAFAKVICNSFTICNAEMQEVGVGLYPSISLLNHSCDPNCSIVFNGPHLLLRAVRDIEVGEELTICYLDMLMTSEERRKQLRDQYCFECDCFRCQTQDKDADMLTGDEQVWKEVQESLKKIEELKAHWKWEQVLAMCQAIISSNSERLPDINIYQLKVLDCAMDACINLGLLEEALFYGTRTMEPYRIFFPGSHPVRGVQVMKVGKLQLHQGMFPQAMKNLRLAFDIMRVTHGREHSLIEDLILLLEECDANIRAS
How it was run: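 Luminescent readout of SAH production (coupled SAH→ATP conversion, MTase-Glo) after SMYD3 reacted 30 min at room temperature with 1.0 µM SAM and 10 µM MAP3K2 peptide, both final. Non-linear regression gave IC50 values.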

Structure (SMILES) | IC50 [nM]
CCCOC(=O)N1CCN(C(=O)c2ccc3c(Cl)cc(-c4cccc5[nH]ncc45)nc3c2)CC1 [B141, Propyl 4-(4-chloro-2-(1H-indazol-4-yl)quinoline-7-carbonyl)piperazine-1-carboxylate] | 630
CCCOC(=O)N1CCN(C(=O)c2ccc3c(Cl)cc(-c4ccc(F)c(CO)c4)nc3c2)CC1 [B150] | 280
CCCOC(=O)N1CCN(C(=O)c2ccc3c(Cl)cc(-c4ccc(F)c(C(N)=O)c4)nc3c2)CC1 [B151, Propyl 4-(2-(3-carbamoyl-4-fluorophenyl)-4-chloroquinoline-7-carbonyl)piperazine-1-carboxylate] | 620
CCCOC(=O)N1CCN(C(=O)c2ccc3c(Cl)cc(-c4ccc(F)c(C(=O)NC)c4)nc3c2)CC1 [B152, Propyl 4-(4-chloro-2-(4-fluoro-3-(methylcarbamoyl)phenyl)quinoline-7-carbonyl)piperazine-1-carboxylate] | 410
CCCOC(=O)N1CCN(C(=O)c2ccc3c(Cl)cc(-c4cscn4)nc3c2)CC1 [B153, Propyl 4-(4-chloro-2-(thiazol-4-yl)quinoline-7-carbonyl)piperazine-1-carboxylate] | 1130
CCCOC(=O)N1CCN(C(=O)c2ccc3c(Cl)cc(-c4ccc(F)c(C(=O)N(C)C)c4)nc3c2)CC1 [B154, Propyl 4-(4-chloro-2-(3-(dimethylcarbamoyl)-4-fluorophenyl)quinoline-7-carbonyl)piperazine-1-carboxylate] | 2290
CCCOC(=O)N1CCN(C(=O)c2ccc3c(Cl)cc(-c4ccc5c(cnn5C)c4)nc3c2)CC1C (centres unmarked) [B155, Propyl 4-(4-chloro-2-(1-methyl-1H-indazol-5-yl)quinoline-7-carbonyl)-2-methylpiperazine-1-carboxylate] | 180
CCCOC(=O)N1CCN(C(=O)c2ccc3c(Cl)cc(-c4ccc(F)c(O)c4)nc3c2)CC1 [B157, Propyl 4-(4-chloro-2-(4-fluoro-3-hydroxyphenyl)quinoline-7-carbonyl)piperazine-1-carboxylate] | 360
CCCOC(=O)N1CCN(C(=O)c2ccc3c(Cl)cc(-c4ccc(CF)cc4)nc3c2)[C@@H](C)C1 [B161, Propyl (S)-4-(4-chloro-2-(4-(fluoromethyl)phenyl)quinoline-7-carbonyl)-3-methylpiperazine-1-carboxylate] | 330
CCCOC(=O)N1CCN(C(=O)c2ccc3c(Cl)cc(-c4ccc(O)c(F)c4)nc3c2)[C@@H](C)C1 [B162, Propyl (S)-4-(4-chloro-2-(3-fluoro-4-hydroxyphenyl)quinoline-7-carbonyl)-3-methylpiperazine-1-carboxylate] | 200
CCCOC(=O)N1CCN(C(=O)c2ccc3c(Cl)cc(-c4ccc5nn[nH]c5c4)nc3c2)CC1 [B164, Propyl 4-(2-(1H-benzo[d][1,2,3]triazol-6-yl)-4-chloroquinoline-7-carbonyl)piperazine-1-carboxylate] | 360
CCCOC(=O)N1CCN(C(=O)c2ccc3c(Cl)cc(-c4ccc(OC)c(F)c4)nc3c2)CC1 [B165, Propyl 4-(4-chloro-2-(3-fluoro-4-methoxyphenyl)quinoline-7-carbonyl)piperazine-1-carboxylate] | 150
CCCOC(=O)N1CCN(C(=O)c2ccc3c(Cl)cc(-c4cnc(C)s4)nc3c2)CC1 [B166, Propyl 4-(4-chloro-2-(2-methylthiazol-5-yl)quinoline-7-carbonyl)piperazine-1-carboxylate] | 3670
CCCOC(=O)N1CCN(C(=O)c2ccc3c(Cl)cc(-c4ccc(F)c(CN(C)C)c4)nc3c2)CC1 [B167] | 660
CCCOC(=O)N1CCN(C(=O)c2ccc3c(Cl)cc(-c4ccn(C)n4)nc3c2)CC1 [B168, Propyl 4-(4-chloro-2-(1-methyl-1H-pyrazol-3-yl)quinoline-7-carbonyl)piperazine-1-carboxylate] | 1750
CCCOC(=O)N1CCN(C(=O)c2ccc3c(Cl)cc(-c4ccc5[nH]ncc5c4)nc3c2)C[C@@H]1C [B169, Propyl (S)-4-(4-chloro-2-(1H-indazol-5-yl)quinoline-7-carbonyl)-2-methylpiperazine-1-carboxylate] | 150
CCCOC(=O)N1CCN(C(=O)c2ccc3c(Cl)cc(-c4ccc5nn(C)cc5c4)nc3c2)C[C@@H]1C [B170, Propyl (S)-4-(4-chloro-2-(2-methyl-2H-indazol-5-yl)quinoline-7-carbonyl)-2-methylpiperazine-1-carboxylate] | 260
CCCOC(=O)N1CCN(C(=O)c2ccc3c(Cl)cc(-c4ccc(OC)c(CO)c4)nc3c2)C[C@@H]1C [B171, Propyl (S)-4-(4-chloro-2-(3-(hydroxymethyl)-4-methoxyphenyl)quinoline-7-carbonyl)-2-methylpiperazine-1-carboxylate] | 150
CCCOC(=O)N1CCN(C(=O)c2ccc3c(Cl)cc(-c4cnc5[nH]nc(C)c5c4)nc3c2)CC1 [B173, Propyl 4-(4-chloro-2-(3-methyl-1H-pyrazolo[3,4-b]pyridin-5-yl)quinoline-7-carbonyl)piperazine-1-carboxylate] | 2500
CCCOC(=O)N1CCN(C(=O)c2ccc3c(Cl)cc(-c4cnc5c(cnn5C)c4)nc3c2)CC1 [B174, Propyl 4-(4-chloro-2-(1-methyl-1H-pyrazolo[3,4-b]pyridin-5-yl)quinoline-7-carbonyl)piperazine-1-carboxylate] | 470
CCCOC(=O)N1CCN(C(=O)c2ccc3c(Cl)cc(-c4cnc5[nH]c(C)cc5c4)nc3c2)CC1 [B175, Propyl 4-(4-chloro-2-(2-methyl-1H-pyrrolo[2,3-b]pyridin-5-yl)quinoline-7-carbonyl)piperazine-1-carboxylate] | 400
CCCOC(=O)N1CCN(C(=O)c2ccc3c(Cl)cc(-c4ccc5[nH]nc(C)c5c4)nc3c2)CC1 [B176, Propyl 4-(4-chloro-2-(3-methyl-1H-indazol-5-yl)quinoline-7-carbonyl)piperazine-1-carboxylate] | 490

Now from value to compound:

IC50 [nM] | Structure (SMILES)
55 | CCCOC(=O)N1CCN(C(=O)c2ccc3c(Cl)cc(-c4cccc(CO)c4)nc3c2)C[C@H]1C [B142, Propyl (R)-4-(4-chloro-2-(3-(hydroxymethyl)phenyl)quinoline-7-carbonyl)-2-methylpiperazine-1-carboxylate]
16 | CCCOC(=O)N1CCN(C(=O)c2ccc3c(Cl)cc(-c4cccc(O)c4)nc3c2)CC1 [B143, Propyl 4-(4-chloro-2-(3-hydroxyphenyl)quinoline-7-carbonyl)piperazine-1-carboxylate]
18 | CCCOC(=O)N1CCN(C(=O)c2ccc3c(Cl)cc(-c4ccc5c(cnn5C)c4)nc3c2)C[C@@H]1C [B144, Propyl (S)-4-(4-chloro-2-(1-methyl-1H-indazol-5-yl)quinoline-7-carbonyl)-2-methylpiperazine-1-carboxylate]
47 | CCCOC(=O)N1CCN(C(=O)c2ccc3c(Cl)cc(-c4cccc(CN)c4)nc3c2)C[C@@H]1C [B145, Propyl (S)-4-(2-(3-(aminomethyl)phenyl)-4-chloroquinoline-7-carbonyl)-2-methylpiperazine-1-carboxylate]
42 | CCCOC(=O)N1CCN(C(=O)c2ccc3c(Cl)cc(-c4ccc(C(N)=O)cc4)nc3c2)C[C@@H]1C [B146, Propyl (S)-4-(2-(4-carbamoylphenyl)-4-chloroquinoline-7-carbonyl)-2-methylpiperazine-1-carboxylate]
150 | CCCOC(=O)N1CCN(C(=O)c2ccc3c(Cl)cc(-c4cn[nH]c4)nc3c2)CC1 [B147, Propyl 4-(4-chloro-2-(1H-pyrazol-4-yl)quinoline-7-carbonyl)piperazine-1-carboxylate]
99 | CCCOC(=O)N1CCN(C(=O)c2ccc3c(Cl)cc(-c4ccsc4)nc3c2)CC1 [B148, Propyl 4-(4-chloro-2-(thiophen-3-yl)quinoline-7-carbonyl)piperazine-1-carboxylate]
110 | CCCOC(=O)N1CCN(C(=O)c2ccc3c(Cl)cc(-c4ccc(NC(C)=O)nc4)nc3c2)CC1 [B149, Propyl 4-(2-(6-acetamidopyridin-3-yl)-4-chloroquinoline-7-carbonyl)piperazine-1-carboxylate]
84 | CCCOC(=O)N1CCN(C(=O)c2ccc3c(Cl)cc(-c4cccc(C(C)O)c4)nc3c2)CC1 (centres unmarked) [B158, Propyl 4-(4-chloro-2-(3-(1-hydroxyethyl)phenyl)quinoline-7-carbonyl)piperazine-1-carboxylate]
120 | CCCOC(=O)N1CCN(C(=O)c2ccc3c(Cl)cc(-c4ccc(C)c(CO)c4)nc3c2)CC1 [B159, Propyl 4-(4-chloro-2-(3-(hydroxymethyl)-4-methylphenyl)quinoline-7-carbonyl)piperazine-1-carboxylate]
150 | CCCOC(=O)N1CCN(C(=O)c2ccc3c(Cl)cc(-c4ccc(O)cc4)nc3c2)[C@@H](C)C1 [B160, Propyl (S)-4-(4-chloro-2-(4-hydroxyphenyl)quinoline-7-carbonyl)-3-methylpiperazine-1-carboxylate]
120 | CCCOC(=O)N1CCN(C(=O)c2ccc3c(Cl)cc(-c4ccc5c(c4)OCO5)nc3c2)CC1 [B163, Propyl 4-(2-(benzo[d][1,3]dioxol-5-yl)-4-chloroquinoline-7-carbonyl)piperazine-1-carboxylate]
39 | CCCOC(=O)N1CCN(C(=O)c2ccc3c(Cl)cc(-c4ccc(F)c(CN)c4)nc3c2)CC1 [B172, Propyl 4-(2-(3-(aminomethyl)-4-fluorophenyl)-4-chloroquinoline-7-carbonyl)piperazine-1-carboxylate]
